Tested on: transcription from VEGF promoter
Experiment: VEGF transcription-suppressing activity, VEGF-PLAP reporter in U251/1-8 cell
Assay type: cell-based
Conditions: Homo sapiens, U-251; U251/1-8 cell, PLAP activity, low oxygen 18 hours; read-out: IC50 values of VEGF transcription-suppressing activity (range given)
Description: In order to prepare reporter system reflecting transcription from VEGF promoter, VEGF promoter sequence was cloned, and inserted in secretory alkali phosphatase (PLAP) vector to construct reporter vector.
In order to obtain the promoter region of human VEGF, VEGF genome was cloned from phage library. PCR primers having the sequences described in Sequence Numbers 1 and 2 were designed based on VEGF cDNA (GenBank accession number: X62568) and a fragment having about 340 bp was obtained by carrying out PCR. Human genome phage library (Human genomic library, Clontech Co.) was screened using this as a probe to obtain pUC18-VEGFA containing about 5.4 kb of VEGF 5′ flanking region. The pUC18-VEGFA was cleaved by KpnI/NheI, VEGF promoter region of about 2.3 kb obtained was inserted in the multi cloning site KpnI/NheI of secretory alkali phosphatase (PLAP) vector (Goto et al, Mol. Pharmacol., 49, 860-873, 1996), and thus, VEGF-PLAP vector was constructed.
The above-mentioned VEGF-PLAP vector was introduced in the U251 cell cultured in the DULBECCO-modified eagle medium (DMEM; manufactured by SIGMA Co., Ltd.) containing 10% fetal calf serum, and cultured in the presence of 1 mg/ml G418 (Merck Co.) to establish G418 resistant stable clone (U251/1-8 cell).
It was confirmed that U251/1-8 cell secreted PLAP under low oxygen (2% O2 incubator) in the same manner as in the report (Cell. Mol. Biol. Res. 40, 35-39, 1994) and was a reporter system reflecting the transcription from VEGF promoter. The screening of the compound suppressing VEGF production which was induced by low oxygen stimulation was carried out below using the clone.
In order to remove the influence of alkaline phosphates in serum, U251/1-8 cell was rinsed twice with the adequate amount of PBS (Phosphate buffered saline), diluted in the DMEM medium containing 10% of serum in which alkaline phosphates was inactivated by the treatment of 60° C. for 20 min., and dispensed in 96-well plates by 4×10^4 cells/180 μl.
After culturing at 37° C. overnight in a CO2 incubator (5% CO2), 20 μL of the above-mentioned incubation solution containing the test compound diluted with 3-fold succession was added, and then they were incubated in a low oxygen ([…]) incubator for 18 hours. With respect to the PLAP activity in the culture supernatants, 10 μl of the supernatants was added to 50 μl of 0.28 M Na2CO3—NaHCO3 buffer solution (pH 10.0, 8.0 mM MgSO4), and finally 50 μl of alkaline phosphatase substrate (LUMISTEIN, Genomescience Co.) was added. After reacting for one hour, the alkaline phosphatase activity of the PLAP was measured by detecting the chemical luminescence by a micro plate reader (Perkin-Elmer Co.).
The PLAP activity under usual oxygen was set as 0%, the PLAP activity of cell which was treated under low oxygen was set as 100%, and the concentration suppressing the PLAP activity by 50% was set as the IC50 value of PLAP.

Structure (SMILES) | IC50
CCC(OC(C)=O)C(C)C1OC1CC(C)/C=C/C=C(\C)C1OC(=O)/C=C\CCC(C)(O)C(OC(C)=O)/C=C/C1C (stereo not drawn) [B43-1, (2Z,8E,12E,14E)-7,21-Diacetoxy-6-hydroxy-6,10,12,16,20-pentamethyl-18,19-epoxytricosa-8,12,14-trien-11-olide] | 0.5 to 100 nM
CCC(O)C(C)C1OC1CC(C)/C=C/C=C(\C)C1OC(=O)/C=C\CCC(C)(O)C(OC(C)=O)/C=C/C1C (stereo not drawn) [B43-2, (2Z,8E,12E,14E)-7-acetoxy-6,21-dihydroxy-6,10,12,16,20-pentamethyl-18,19-epoxytricosa-2,8,12,14-tetraen-11-olide] | 0.5 to 100 nM
CCC(O)C(C)C1OC1CC(C)/C=C/C=C(\C)C1OC(=O)CC(O)CCC(C)(O)C(OC(N)=O)/C=C/C1C (stereo not drawn) [B44, (8E,12E,14E)-7-Carbamoyloxy-3,6,21-trihydroxy-6,10,12,16,20-pentamethyl-18,19-epoxytricosa-8,12,14-trien-11-olide] | 0.5 to 100 nM
CCC(O)C(C)C1OC1CC(C)/C=C/C=C(\C)C1OC(=O)CC(O)CCC(C)(O)C(OC(=O)NC)/C=C/C1C (stereo not drawn) [B45, (8E,12E,14E)-3,6,21-Trihydroxy-6,10,12,16,20-pentamethyl-7-N-methylcarbamoyloxy-18,19-epoxytricosa-8,12,14-trien-11-olide] | 0.5 to 100 nM
CCC(O)C(C)C1OC1CC(C)/C=C/C=C(\C)C1OC(=O)CC(O)CCC(C)(O)C(OC(=O)N(C)C)/C=C/C1C (stereo not drawn) [B46, (8E,12E,14E)-3,6,21-Trihydroxy-6,10,12,16,20-pentamethyl-7-N,N-dimethylcarbamoyloxy-18,19-epoxytricosa-8,12,14-trien-11-olide] | 0.5 to 100 nM
CCC(O)C(C)C1OC1CC(C)/C=C/C=C(\C)C1OC(=O)CC(O)CCC(C)(O)C(OC(=O)NCCc2ccccn2)/C=C/C1C (stereo not drawn) [B47, (8E,12E,14E)-3,6,21-Trihydroxy-6,10,12,16,20-pentamethyl-7-N-(2-(2-pyridyl)ethyl)carbamoyloxy-18,19-epoxytricosa-8,12,14-trien-11-olide] | 0.5 to 100 nM
CCC(O)C(C)C1OC1CC(C)/C=C/C=C(\C)C1OC(=O)CC(O)CCC(C)(O)C(OC(=O)N2CCC(O)CC2)/C=C/C1C (stereo not drawn) [B48, (8E,12E,14E)-3,6,21-Trihydroxy-7-((4-hydroxypiperidin-1-yl)carbonyl)oxy-6,10,12,16,20-pentamethyl-18,19-epoxytricosa-8,12,14-trien-11-olide] | 0.5 to 100 nM
CCC(O)C(C)C1OC1CC(C)/C=C/C=C(\C)C1OC(=O)CC(O)CCC(C)(O)C(OC(=O)N2CCOCC2)/C=C/C1C (stereo not drawn) [B49, (8E,12E,14E)-3,6,21-Trihydroxy-6,10,12,16,20-pentamethyl-7-((morpholin-4-yl)carbonyl)oxy-18,19-epoxytricosa-8,12,14-trien-11-olide] | 0.5 to 100 nM
CCC(O)C(C)C1OC1CC(C)/C=C/C=C(\C)C1OC(=O)CC(O)CCC(C)(O)C(OC(=O)N2CCN(C)CC2)/C=C/C1C (stereo not drawn) [B50, (8E,12E,14E)-3,6,21-Trihydroxy-6,10,12,16,20-pentamethyl-7-((4-methylpiperazin-1-yl)carbonyl)oxy-18,19-epoxytricosa-8,12,14-trien-11-olide] | 0.5 to 100 nM
CCC(O)C(C)C1OC1CC(C)/C=C/C=C(\C)C1OC(=O)CC(O)CCC(C)(O)C(OC(=O)N2CCN(C(C)=O)CC2)/C=C/C1C (stereo not drawn) [B51, (8E,12E,14E)-7-((4-Acetylpiperazin-1-yl)carbonyl)oxy-3,6,21-trihydroxy-6,10,12,16,20-pentamethyl-18,19-epoxytricosa-8,12,14-trien-11-olide] | 0.5 to 100 nM
CCC(O)C(C)C1OC1CC(C)/C=C/C=C(\C)C1OC(=O)CC(O)CCC(C)(O)C(OC(=O)N2CCNCC2)/C=C/C1C (stereo not drawn) [B52, (8E,12E,14E)-3,6,21-Trihydroxy-6,10,12,16,20-pentamethyl-7-((piperazin-1-yl)carbonyl)oxy-18,19-epoxytricosa-8,12,14-trien-11-olide] | 0.5 to 100 nM
CCC(O)C(C)C1OC1CC(C)/C=C/C=C(\C)C1OC(=O)CC(O)CCC(C)(O)C(OC(=O)NCCOC)/C=C/C1C (stereo not drawn) [B53, (8E,12E,14E)-3,6,21-Trihydroxy-7-(N-(2-methoxyethyl))carbamoyloxy-6,10,12,16,20-pentamethyl-18,19-epoxytricosa-8,12,14-trien-11-olide] | 0.5 to 100 nM
CCC(O)C(C)C1OC1CC(C)/C=C/C=C(\C)C1OC(=O)CC(O)CCC(C)(O)C(OC(=O)NCCN(C)C)/C=C/C1C (stereo not drawn) [B54, (8E,12E,14E)-7-(N-(2-Dimethylamino)ethyl)carbamoyloxy-3,6,21-trihydroxy-6,10,12,16,20-pentamethyl-18,19-epoxytricosa-8,12,14-trien-11-olide] | 0.5 to 100 nM
CCC(O)C(C)C1OC1CC(C)/C=C/C=C(\C)C1OC(=O)CC(O)CCC(C)(O)C(OC(=O)NCCCN(C)C)/C=C/C1C (stereo not drawn) [B55, (8E,12E,14E)-7-(N-(3-Dimethylamino)propyl)carbamoyloxy-3,6,21-trihydroxy-6,10,12,16,20-pentamethyl-18,19-epoxytricosa-8,12,14-trien-11-olide] | 0.5 to 100 nM
CCC(O)C(C)C1OC1CC(C)/C=C/C=C(\C)C1OC(=O)CC(O)CCC(C)(O)C(OC(=O)NCc2ccccn2)/C=C/C1C (stereo not drawn) [B56, (8E,12E,14E)-3,6,21-Trihydroxy-6,10,12,16,20-pentamethyl-7-N-(2-pyridylmethyl)carbamoyloxy-18,19-epoxytricosa-8,12,14-trien-11-olide] | 0.5 to 100 nM
CCC(O)C(C)C1OC1CC(C)/C=C/C=C(\C)C1OC(=O)CC(O)CCC(C)(O)C(OC(=O)NCc2cccnc2)/C=C/C1C (stereo not drawn) [B57, (8E,12E,14E)-3,6,21-Trihydroxy-6,10,12,16,20-pentamethyl-7-N-(3-pyridylmethyl)carbamoyloxy-18,19-epoxytricosa-8,12,14-trien-11-olide] | 0.5 to 100 nM
CCC(O)C(C)C1OC1CC(C)/C=C/C=C(\C)C1OC(=O)CC(O)CCC(C)(O)C(OC(=O)NCc2ccncc2)/C=C/C1C (stereo not drawn) [B58, (8E,12E,14E)-3,6,21-Trihydroxy-6,10,12,16,20-pentamethyl-7-N-(4-pyridylmethyl)carbamoyloxy-18,19-epoxytricosa-8,12,14-trien-11-olide] | 0.5 to 100 nM
CCC(O)C(C)C1OC1CC(C)/C=C/C=C(\C)C1OC(=O)CC(O)CCC(C)(O)C(OC(=O)NCCN2CCOCC2)/C=C/C1C (stereo not drawn) [B59, (8E,12E,14E)-3,6,21-Trihydroxy-6,10,12,16,20-pentamethyl-7-N-(2-(morpholin-4-yl)ethyl)carbamoyloxy-18,19-epoxytricosa-8,12,14-trien-11-olide] | 0.5 to 100 nM
CCC(O)C(C)C1OC1CC(C)/C=C/C=C(\C)C1OC(=O)CC(O)CCC(C)(O)C(OC(=O)NCCCN2CCOCC2)/C=C/C1C (stereo not drawn) [B60, (8E,12E,14E)-3,6,21-Trihydroxy-6,10,12,16,20-pentamethyl-7-N-(3-(morpholin-4-yl)propyl)carbamoyloxy-18,19-epoxytricosa-8,12,14-trien-11-olide] | 0.5 to 100 nM
CCC(O)C(C)C1OC1CC(C)/C=C/C=C(\C)C1OC(=O)CC(O)CCC(C)(O)C(OC(=O)N2CCCNCC2)/C=C/C1C (stereo not drawn) [B61, (8E,12E,14E)-3,6,21-Trihydroxy-6,10,12,16,20-pentamethyl-7-((homopiperazin-1-yl)carbonyl)oxy-18,19-epoxytricosa-8,12,14-trien-11-olide] | 0.5 to 100 nM
CCC(O)C(C)C1OC1CC(C)/C=C/C=C(\C)C1OC(=O)CC(O)CCC(C)(O)C(OC(=O)N2CCCN(C)CC2)/C=C/C1C (stereo not drawn) [B62, (8E,12E,14E)-3,6,21-Trihydroxy-6,10,12,16,20-pentamethyl-7-((4-methylhomopiperazin-1-yl)carbonyl)oxy-18,19-epoxytricosa-8,12,14-trien-11-olide] | 0.5 to 100 nM
